In PubChem BioAssay (NCI):
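Briefly, cells in 96-well plates were exposed to five compound concentrations for 48 h, and endpoints were estimated by linear interpolation. At the GI50, growth is halved. TGI marks complete inhibition of growth.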

Tests used:
Assay in all cases: DTP human tumour cell line panel, 48 h
[1] = test system: HOP-62 NSCLC
[2] = test system: NCI-H522 lung
[3] = test system: SNB-19 CNS
[4] = test system: RPMI-8226 leukemia
[5] = test system: OVCAR-8 ovarian
[6] = test system: HCT-15 colon
[7] = test system: CCRF-CEM leukemia
[8] = test system: HCT-116 colon
[9] = test system: UACC-257 melanoma
[10] = test system: ACHN renal

COc1ccc(C2=CSc3cc(Cl)c(C)cc3S(=O)(=O)N2C(C)=O)cc1
GI50 [1]: 47.2 µM | TGI [1]: > 100 µM | GI50 [2]: 53.9 µM | TGI [2]: > 100 µM | GI50 [3]: 36.3 µM | TGI [3]: > 100 µM | GI50 [4]: 26 µM | TGI [4]: 94 µM | GI50 [5]: 33.8 µM | TGI [5]: > 100 µM | GI50 [6]: 24.6 µM | TGI [6]: 88.5 µM | GI50 [7]: 38.6 µM | TGI [7]: > 100 µM | GI50 [8]: 21.3 µM | TGI [8]: 52.5 µM | GI50 [9]: 36.2 µM | TGI [9]: > 100 µM | GI50 [10]: 18.8 µM | TGI [10]: 43.7 µM

Cn1ccnc1C(=O)/C=C/c1ccc(CC(=O)Nc2ccc(Br)cc2)cc1
GI50 [1]: 3.34 µM | TGI [1]: 7.9 µM | GI50 [2]: 3.83 µM | TGI [2]: 8.25 µM | GI50 [3]: 2.61 µM | TGI [3]: 5.75 µM | GI50 [4]: 2.76 µM | TGI [4]: 8.11 µM | GI50 [5]: 5.39 µM | TGI [5]: > 16.7 µM | GI50 [6]: 2.5 µM | TGI [6]: > 16.7 µM | GI50 [7]: 3.04 µM | TGI [7]: > 16.7 µM | GI50 [8]: 1.56 µM | TGI [8]: 4.63 µM | GI50 [9]: 15.6 µM | TGI [9]: > 16.7 µM | GI50 [10]: 4.4 µM | TGI [10]: > 16.7 µM

NC(CSC(c1ccccc1)(c1ccccc1)c1ccc2c(c1)OCO2)C(=O)O (stereo not given)
GI50 [1]: 1.64 µM | TGI [1]: > 100 µM | GI50 [2]: 0.208 µM | TGI [2]: 0.535 µM | GI50 [3]: 0.665 µM | TGI [3]: > 100 µM | GI50 [4]: 0.306 µM | TGI [4]: 3.77 µM | GI50 [5]: 0.595 µM | TGI [5]: > 100 µM | GI50 [6]: 1.15 µM | TGI [6]: > 81 µM | GI50 [7]: 0.306 µM | TGI [7]: > 41.5 µM | GI50 [8]: 0.358 µM | TGI [8]: 29.6 µM | GI50 [9]: 2.52 µM | TGI [9]: > 100 µM | GI50 [10]: 4.06 µM | TGI [10]: > 100 µM

Cc1cc(=O)n2[nH]c(-c3ccc(C(C)(C)C)cc3)cc2n1
GI50 [1]: 17.5 µM | TGI [1]: 76.9 µM | GI50 [2]: 3.42 µM | TGI [2]: 43 µM | GI50 [3]: 10.1 µM | TGI [3]: > 100 µM | GI50 [4]: 3.89 µM | TGI [4]: 54.8 µM | GI50 [5]: 11.2 µM | TGI [5]: > 100 µM | GI50 [6]: 5.79 µM | TGI [6]: > 100 µM | GI50 [7]: 4.19 µM | TGI [7]: > 100 µM | GI50 [8]: 8.25 µM | TGI [8]: > 100 µM | GI50 [9]: 4.32 µM | TGI [9]: 49.6 µM | GI50 [10]: 5.65 µM | TGI [10]: > 100 µM

O=c1n(CC2CO2)c(=O)n(CC2CO2)n1CC1CO1 (stereo not given)
GI50 [1]: 4.7 µM | TGI [1]: > 35.5 µM | GI50 [2]: 12.8 µM | TGI [2]: > 49.2 µM | GI50 [3]: 14.2 µM | TGI [3]: > 100 µM | GI50 [4]: 13.6 µM | TGI [4]: > 57.8 µM | GI50 [5]: 27.2 µM | TGI [5]: > 100 µM | GI50 [6]: 11.1 µM | TGI [6]: 44.3 µM | GI50 [7]: 3.27 µM | TGI [7]: > 80.2 µM | GI50 [8]: 18.9 µM | TGI [8]: > 100 µM | GI50 [9]: 13 µM | TGI [9]: 95.6 µM | GI50 [10]: 2.69 µM | TGI [10]: > 100 µM

COc1ccc(/C=C\c2cc(OC)c3c(c2)OCO3)c(O)c1O
TGI [1]: 64.5 µM | TGI [2]: 3.53 µM | TGI [3]: 23.6 µM | TGI [4]: 18.2 µM | TGI [5]: 32.5 µM | TGI [6]: 59.8 µM | TGI [7]: 14.3 µM | TGI [8]: 17.7 µM | TGI [9]: 53.4 µM | TGI [10]: 32.7 µM

Nc1cc2nc3ccccc3sc-2cc1=O
GI50 [1]: 2.51 µM | TGI [1]: 5.71 µM | GI50 [2]: 2.46 µM | TGI [2]: 5.87 µM | GI50 [3]: 6.13 µM | TGI [3]: 20 µM | GI50 [4]: 2.54 µM | TGI [4]: 26.4 µM | GI50 [5]: 3.17 µM | TGI [5]: 13.8 µM | GI50 [6]: 1.44 µM | TGI [6]: 11.1 µM | GI50 [7]: 2.47 µM | TGI [7]: > 100 µM | GI50 [8]: 2.56 µM | TGI [8]: 10.3 µM | GI50 [9]: 2.3 µM | TGI [9]: 5.83 µM | GI50 [10]: 2.5 µM | TGI [10]: 11.1 µM

O=C1c2ccccc2C(=O)c2sc(Nc3cccc(Cl)c3)nc21
TGI [1]: 3.19 µM | TGI [2]: 3.09 µM | TGI [3]: 4.36 µM | TGI [4]: 4.07 µM | TGI [5]: 3.27 µM | TGI [6]: 3.69 µM | TGI [7]: 3.89 µM | TGI [8]: 2.54 µM | TGI [9]: 2.99 µM | TGI [10]: 3.03 µM

Fc1ccc(Nc2ncnc3ccc(-c4cnc5[nH]ccc5c4)cc23)cc1Cl
GI50 [1]: 3.54 µM | TGI [1]: 15.6 µM | GI50 [2]: 12.6 µM | TGI [2]: 69.1 µM | GI50 [3]: 1.94 µM | TGI [3]: 5.94 µM | GI50 [4]: 3.09 µM | TGI [4]: > 100 µM | GI50 [5]: 2.94 µM | TGI [5]: 14.9 µM | GI50 [6]: 3.24 µM | TGI [6]: > 76.5 µM | GI50 [7]: 7.83 µM | TGI [7]: > 100 µM | GI50 [8]: 1.77 µM | TGI [8]: 3.63 µM | GI50 [9]: 13.5 µM | TGI [9]: > 100 µM | GI50 [10]: 0.602 µM | TGI [10]: 2.49 µM

CCOC(=O)COc1cccc2c1C(=O)CCO2
TGI [1]: > 100 µM | TGI [2]: > 100 µM | TGI [3]: > 100 µM | TGI [4]: > 100 µM | TGI [5]: > 100 µM | TGI [6]: > 100 µM | TGI [7]: > 100 µM | TGI [8]: > 100 µM | TGI [9]: > 100 µM | TGI [10]: > 100 µM

COC(=O)Nc1nc2ccc(S(=O)c3ccccc3)cc2[nH]1 (stereo not given)
GI50 [1]: 3.64 µM | TGI [1]: > 100 µM | GI50 [2]: 2.79 µM | TGI [2]: 40.2 µM | GI50 [3]: 6.12 µM | TGI [3]: > 100 µM | GI50 [4]: 5.11 µM | TGI [4]: > 100 µM | GI50 [5]: 14.8 µM | TGI [5]: > 100 µM | GI50 [6]: 4.58 µM | TGI [6]: > 100 µM | GI50 [7]: 5.16 µM | TGI [7]: > 100 µM | GI50 [8]: 3.5 µM | TGI [8]: > 100 µM | GI50 [9]: > 100 µM | TGI [9]: > 100 µM | GI50 [10]: 7.59 µM | TGI [10]: > 100 µM

CC(C)c1ccc(C(C)C(=O)N(CC2=C(C(C)c3ccccn3)c3ccccc3C2)C(C)C)cc1 (stereo not given)
GI50 [1]: 5.26 µM | TGI [1]: > 100 µM | GI50 [2]: 2.59 µM | TGI [2]: 15.7 µM | GI50 [3]: 6.66 µM | TGI [3]: > 100 µM | GI50 [4]: 2.32 µM | TGI [4]: 7.52 µM | GI50 [5]: 3.82 µM | TGI [5]: > 100 µM | GI50 [6]: 2.84 µM | TGI [6]: 18 µM | GI50 [7]: 3.25 µM | TGI [7]: 22 µM | GI50 [8]: 1.94 µM | TGI [8]: 8.02 µM | GI50 [9]: 3.43 µM | TGI [9]: 38.3 µM | GI50 [10]: 3.22 µM | TGI [10]: > 100 µM

CC1=C(C(=O)Nc2ccc(F)c(Cl)c2)C(c2ccc(Cl)cc2)NC(=O)N1 (stereo not given)
GI50 [1]: 15.5 µM | TGI [1]: 30.8 µM | GI50 [2]: 17.8 µM | TGI [2]: 34.9 µM | GI50 [3]: 33.1 µM | TGI [3]: > 100 µM | GI50 [4]: 13.6 µM | TGI [4]: 36.3 µM | GI50 [5]: 18.4 µM | TGI [5]: 36.8 µM | GI50 [6]: 19.5 µM | TGI [6]: 41.1 µM | GI50 [7]: 15.3 µM | TGI [7]: 38.8 µM | GI50 [8]: 12.8 µM | TGI [8]: 25.4 µM | GI50 [9]: 19.4 µM | TGI [9]: 38.6 µM | GI50 [10]: 22 µM | TGI [10]: 63 µM
